Structures can show the parent of a compound that is named as a salt.
Key:
Assay type in all cases: in vivo
[1] = system: lipoperoxides content in the heart; test: lipoperoxides content in heart (malonyldialdehyde, Yagi procedure) of rats on hyperlipidemizing and hypercholesterolemizing diet; conditions: male rats, solution as ad libitum drink; for percent variation compared with the control: heart lipoperoxides, 20 days diet; for malonyldialdehyde nmoles/g. of fresh tissue: heart, 20 days hyperlipidemizing and hypercholesterolemizing diet
Method: (§1) In order to study the pharmacological and/or dietetic characteristics of the compositions according to the present invention, tests were carried out to evaluate the following effects in rats subjected to an ipovitaminic, hyperlipidemizing and hypercholesterolemizing diet (which is known to be capable of promoting the tissue and plasma peroxidation processes):
4°) effect of the compositions on the lipoperoxides content in the heart (measured as malonyldialdehyde nmoles/g).
(§2) 36 Male rats weighing 180-200 g were used.
(§3) The animals were subjected for 20 days to a standard hyperlipidemizing and hypercolesterolemizing diet consisting of: 20% caseine, a 3.5% mixture of oligoelements and mineral salts, a 0.1% mixture of vitamins, 0.2% choline bitartrate, 2% cellulose powder, 0.5% chloesterol, 0.25. sodium cholate, 62.44% saccharose and 10.9% lard. During that time, the animals were divided into in 6 groups which received as an "ad libitum" available drink:
(§4) 1° group: control (only water)
(§5) 2° group: Test A (a 0.75% CARNOSINE aqueous solution)
(§6) 3° group: Test B (a 0.25% CARNITINE aqueous solution)
(§7) At end of the test the animals were killed to take both blood samples and the various organs (liver, brain, and heart) on which the lipoperoxides content was evaluated dosing malonyldialdehyde, according to the procedure by Yagi (YAGI K, (1982), in "Lipid peroxides in biology and medicine", Academic Press, New York, pp. 324-40).

[2] = system: lipoperoxides content in the plasma; test: lipoperoxides content in plasma (malonyldialdehyde, Yagi procedure) of rats on hyperlipidemizing and hypercholesterolemizing diet; conditions: male rats, solution as ad libitum drink; for percent variation compared with the control: plasma lipoperoxides, 20 days diet; for malonyldialdehyde: plasma, 20 days hyperlipidemizing and hypercholesterolemizing diet
Method: as §1
1°) effect of the compositions on the lipoperoxides […] content (measured as malonildialdehye nmoles/ml)
as §2, §3, §4, §5, §6, §7

[3] = system: lipoperoxides content in the liver; test: lipoperoxides content in liver (malonyldialdehyde, Yagi procedure) of rats on hyperlipidemizing and hypercholesterolemizing diet; conditions: male rats, solution as ad libitum drink; for percent variation compared with the control: liver lipoperoxides, 20 days diet; for malonyldialdehyde nmoles/g. of fresh tissue: liver, 20 days hyperlipidemizing and hypercholesterolemizing diet
Method: as §1
2°) effect of the compositions on the lipoperoxides hepatic content (measured as malonyldialdehyde nmoles/g)
as §2, §3, §4, §5, §6, §7

[4] = system: lipoperoxides content in brain; test: lipoperoxides content in brain (malonyldialdehyde, Yagi procedure) of rats on hyperlipidemizing and hypercholesterolemizing diet; conditions: male rats, solution as ad libitum drink; for percent variation compared with the control: brain lipoperoxides, 20 days diet; for malonyldialdehyde nmoles/g. of fresh tissue: brain, 20 days hyperlipidemizing and hypercholesterolemizing diet
Method: 3°) effect of the compositions on the lipoperoxides cerebral content (measured as malonyldialdehyde nmoles/g)
as §2, §3, §4, §5, §6, §7

SMILES | percent variation compared with the control [1] | malonyldialdehyde nmoles/g. of fresh tissue [1] | percent variation compared with the control [2] | malonyldialdehyde [2] [nmol/mL] | percent variation compared with the control [3] | malonyldialdehyde nmoles/g. of fresh tissue [3] | percent variation compared with the control [4] | malonyldialdehyde nmoles/g. of fresh tissue [4] | percent variation compared with the control ([1]; listed as carnosine) [%]
C[N+](C)(C)CC(O)CC(=O)[O-] (centres unmarked) [Test B, 3-carboxy-2-hydroxy-N,N,N-trimethyl-1-propanamine inner salt] | no changes compared with the controls | 45 ± 4 nmoles/g. of fresh tissue | no effects | 4.2 ± 0.8 | +2.3% | 43 ± 6 nmoles/g. of fresh tissue | +3.9% | 106 ± 5 nmoles/g. of fresh tissue | 
NCCC(=O)N[C@@H](Cc1c[nH]cn1)C(=O)O [Test A, β-alanyl-L-histidine] | -20.0% | 36 ± 7 nmoles/g. of fresh tissue | -14.2% | 3.6 ± 0.6 | -9.5% | 39 ± 8 nmoles/g. of fresh tissue | -12.7% | 89 ± 7 nmoles/g. of fresh tissue | -20

— patent US5866537A, “Pharmaceutical and/or dietetic compositions with antioxidant activity containing carnosine or derivatives and branched amino acids” (Farmila-Farmaceutici Milano S.R.L., priority 1995, dated 1999)
